# Measurements from PubChem BioAssay (NCI).
#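 All cell lines were grown in 96-well plates and treated with compound for 48 hours. TGI marks complete inhibition of growth.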
# What was measured:
# Assay in all cases: DTP human tumour cell line panel, 48 h
# [1] = test system: 786-0 renal
# [2] = test system: A498 renal
# [3] = test system: A549 NSCLC
# [4] = test system: ACHN renal
# [5] = test system: BT-549 breast
# [6] = test system: CAKI-1 renal
# [7] = test system: CCRF-CEM leukemia
# [8] = test system: COLO 205 colon
# [9] = test system: DU-145 prostate
# [10] = test system: EKVX NSCLC
# [11] = test system: HCC-2998 colon
# [12] = test system: HCT-116 colon
# [13] = test system: HCT-15 colon
# [14] = test system: HOP-62 NSCLC
# [15] = test system: HS 578T breast
# [16] = test system: HT29 colon
# [17] = test system: IGROV1 ovarian
# [18] = test system: K-562 leukemia
# [19] = test system: KM12 colon
# [20] = test system: LOX IMVI melanoma
# [21] = test system: M14 melanoma
# [22] = test system: MCF7 breast
# [23] = test system: MDA-MB-231 breast
# [24] = test system: MDA-MB-435
# [25] = test system: MDA-N
# [26] = test system: MOLT-4 leukemia
# [27] = test system: NCI-H23 lung
# [28] = test system: NCI-H460 lung
# [29] = test system: NCI-H522 lung
# [30] = test system: NCI/ADR-RES ovarian
# [31] = test system: OVCAR-3 ovarian
# [32] = test system: OVCAR-4 ovarian
# [33] = test system: OVCAR-5 ovarian
# [34] = test system: OVCAR-8 ovarian
# [35] = test system: PC-3 prostate
# [36] = test system: RPMI-8226 leukemia
# [37] = test system: SF-268 CNS
# [38] = test system: SF-295 CNS
# [39] = test system: SF-539 CNS
# [40] = test system: SK-MEL-2 melanoma
# [41] = test system: SK-MEL-28 melanoma
# [42] = test system: SK-MEL-5 melanoma
# [43] = test system: SK-OV-3 ovarian
# [44] = test system: SN12C renal
# [45] = test system: SNB-19 CNS
# [46] = test system: SR leukemia
# [47] = test system: SW-620 colon
# [48] = test system: TK-10 renal
# [49] = test system: U251 CNS
# [50] = test system: UACC-257 melanoma
# [51] = test system: UACC-62 melanoma
# [52] = test system: UO-31 renal
# [53] = test system: HL-60(TB) leukemia
# [54] = test system: MALME-3M melanoma
# [55] = test system: NCI-H226 lung
# [56] = test system: RXF 393 renal
# [57] = test system: SNB-75 CNS
# [58] = test system: T-47D breast
structure (smiles),measurement,setting,value
COc1ccc(OC)c(CNc2ccc(O)c(C(=O)NCCc3ccc(F)cc3)c2)c1,TGI,[1],68.4 µM
same,TGI,[2],59.9 µM
same,TGI,[3],> 100 µM
same,TGI,[4],> 100 µM
same,TGI,[5],73.6 µM
same,TGI,[6],87.9 µM
same,TGI,[7],> 100 µM
same,TGI,[8],40.2 µM
same,TGI,[9],34.5 µM
same,TGI,[10],65.6 µM
same,TGI,[11],8.98 µM
same,TGI,[12],27.1 µM
same,TGI,[13],44.9 µM
same,TGI,[14],21.4 µM
same,TGI,[15],> 100 µM
same,TGI,[16],47.5 µM
same,TGI,[17],20.9 µM
same,TGI,[18],19.1 µM
same,TGI,[19],25.9 µM
same,TGI,[20],25.3 µM
same,TGI,[21],26.8 µM
same,TGI,[22],59.2 µM
same,TGI,[23],21.7 µM
same,TGI,[24],8.34 µM
same,TGI,[25],23 µM
same,TGI,[26],21.5 µM
same,TGI,[27],> 100 µM
same,TGI,[28],> 100 µM
same,TGI,[29],7.56 µM
same,TGI,[30],> 100 µM
same,TGI,[31],28.8 µM
same,TGI,[32],66.2 µM
same,TGI,[33],64.9 µM
same,TGI,[34],37.6 µM
same,TGI,[35],32.1 µM
same,TGI,[36],15.4 µM
same,TGI,[37],29.1 µM
same,TGI,[38],51.7 µM
same,TGI,[39],35.7 µM
same,TGI,[40],26.4 µM
same,TGI,[41],27.7 µM
same,TGI,[42],19.9 µM
same,TGI,[43],46.3 µM
same,TGI,[44],71.9 µM
same,TGI,[45],54.1 µM
same,TGI,[46],12.1 µM
same,TGI,[47],> 100 µM
same,TGI,[48],94.9 µM
same,TGI,[49],24.9 µM
same,TGI,[50],41 µM
same,TGI,[51],25.7 µM
same,TGI,[52],24.8 µM
O=c1[nH]c(=O)n(C2CC(O)C(CO)O2)cc1NN=NCc1ccccc1 (stereo not drawn),TGI,[1],> 100 µM
same,TGI,[3],> 100 µM
same,TGI,[4],> 100 µM
same,TGI,[5],> 100 µM
same,TGI,[6],> 100 µM
same,TGI,[7],> 100 µM
same,TGI,[9],> 100 µM
same,TGI,[10],> 100 µM
same,TGI,[12],> 100 µM
same,TGI,[13],> 100 µM
same,TGI,[53],> 100 µM
same,TGI,[14],> 100 µM
same,TGI,[15],> 100 µM
same,TGI,[16],> 100 µM
same,TGI,[17],> 100 µM
same,TGI,[18],> 100 µM
same,TGI,[19],> 100 µM
same,TGI,[20],> 100 µM
same,TGI,[21],> 100 µM
same,TGI,[54],> 100 µM
same,TGI,[22],> 100 µM
same,TGI,[23],> 100 µM
same,TGI,[24],> 100 µM
same,TGI,[25],> 100 µM
same,TGI,[26],> 100 µM
same,TGI,[55],> 100 µM
same,TGI,[27],> 100 µM
same,TGI,[28],> 100 µM
same,TGI,[29],> 100 µM
same,TGI,[30],> 100 µM
same,TGI,[31],> 100 µM
same,TGI,[32],> 100 µM
same,TGI,[33],> 100 µM
same,TGI,[34],> 100 µM
same,TGI,[35],> 100 µM
same,TGI,[56],> 100 µM
same,TGI,[37],> 100 µM
same,TGI,[38],> 100 µM
same,TGI,[41],> 100 µM
same,TGI,[42],> 100 µM
same,TGI,[43],> 100 µM
same,TGI,[44],> 100 µM
same,TGI,[45],> 100 µM
same,TGI,[57],> 100 µM
same,TGI,[46],> 100 µM
same,TGI,[58],> 100 µM
same,TGI,[48],> 100 µM
same,TGI,[49],> 100 µM
same,TGI,[50],> 100 µM
same,TGI,[51],> 100 µM
same,TGI,[52],> 100 µM
